Test system: 991263-137-R1-J2-PDC complex spheroid viability
Assay: Anticancer human tumor 991263-137-R1-J2-PDC patient-derived colon adenocarcinoma cell line growth inhibition [POLQ]
Details: for IC50: curve of first compound; for viability, T/C: stronger effect = lower value
How it was run: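 Complex spheroid viability model combining PDC tumour cells with endothelial (HUVEC) and MSC stromal cells. Novobiocin, ART-558 or RP6685 were tested singly and in combination with standard and investigational anticancer drugs. Each was titrated in half-log steps from near clinical Cmax, or from 10 microM where Cmax was unknown.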

[1] = second compound 0.0316 µM, first compound 0.00316 µM
[2] = second compound 0.0316 µM, first compound 0.01 µM
[3] = second compound 0.0316 µM, first compound 0.0316 µM
[4] = second compound 0.0316 µM, first compound 0.1 µM
[5] = second compound 0.1 µM, first compound 0.00316 µM
[6] = second compound 0.1 µM, first compound 0.01 µM
[7] = second compound 0.1 µM, first compound 0.0316 µM
[8] = second compound 0.1 µM, first compound 0.1 µM
[9] = second compound 0.316 µM, first compound 0.00316 µM
[10] = second compound 0.316 µM, first compound 0.01 µM
[11] = second compound 0.316 µM, first compound 0.0316 µM
[12] = second compound 0.316 µM, first compound 0.1 µM
[13] = second compound 1 µM, first compound 0.00316 µM
[14] = second compound 1 µM, first compound 0.01 µM
[15] = second compound 1 µM, first compound 0.0316 µM
[16] = second compound 1 µM, first compound 0.1 µM
[17] = second compound 3.16 µM, first compound 0.00316 µM
[18] = second compound 3.16 µM, first compound 0.01 µM
[19] = second compound 3.16 µM, first compound 0.0316 µM
[20] = second compound 3.16 µM, first compound 0.1 µM
[21] = second compound 10 µM, first compound 0.00316 µM
[22] = second compound 10 µM, first compound 0.01 µM
[23] = second compound 10 µM, first compound 0.0316 µM
[24] = second compound 10 µM, first compound 0.1 µM
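Further: spheroids exposed to compounds for 7 days before readout.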
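Wherever viability, T/C is given: 100% = DMSO vehicle control viability.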

CC[C@@]1(O)C(=O)OCc2c1cc1n(c2=O)Cc2cc3c(CN(C)C)c(O)ccc3nc2-1 + Nc1ccc(C#CCN(C(=O)Cc2ncc(C(F)(F)F)cc2C(F)(F)F)c2ccc(F)cc2)nn1
IC50 (second compound 0.0316 µM): > 100 nM | IC50 (second compound 0.1 µM): > 100 nM | IC50 (second compound 0.316 µM): > 100 nM | IC50 (second compound 1 µM): > 100 nM | IC50 (second compound 3.16 µM): > 100 nM | IC50 (second compound 10 µM): > 100 nM | viability, T/C (second compound 0.0316 µM, first compound 0.000316 µM): 94.8% | viability, T/C (second compound 0.0316 µM, first compound 0.001 µM): 92.6% | viability, T/C [1]: 92.4% | viability, T/C [2]: 101% | viability, T/C [3]: 99.8% | viability, T/C [4]: 80.2% | viability, T/C (second compound 0.1 µM, first compound 0.000316 µM): 111% | viability, T/C (second compound 0.1 µM, first compound 0.001 µM): 102% | viability, T/C [5]: 101% | viability, T/C [6]: 94.6% | viability, T/C [7]: 101% | viability, T/C [8]: 79.8% | viability, T/C (second compound 0.316 µM, first compound 0.000316 µM): 108% | viability, T/C (second compound 0.316 µM, first compound 0.001 µM): 109% | viability, T/C [9]: 95.4% | viability, T/C [10]: 107% | viability, T/C [11]: 104% | viability, T/C [12]: 76.8% | viability, T/C (second compound 1 µM, first compound 0.000316 µM): 104% | viability, T/C (second compound 1 µM, first compound 0.001 µM): 106% | viability, T/C [13]: 101% | viability, T/C [14]: 101% | viability, T/C [15]: 101% | viability, T/C [16]: 84.3% | viability, T/C (second compound 3.16 µM, first compound 0.000316 µM): 102% | viability, T/C (second compound 3.16 µM, first compound 0.001 µM): 94.9% | viability, T/C [17]: 105% | viability, T/C [18]: 93.1% | viability, T/C [19]: 93.6% | viability, T/C [20]: 65.6% | viability, T/C (second compound 10 µM, first compound 0.000316 µM): 102% | viability, T/C (second compound 10 µM, first compound 0.001 µM): 112% | viability, T/C [21]: 107% | viability, T/C [22]: 88.1% | viability, T/C [23]: 91.1% | viability, T/C [24]: 66.6%

C=CCn1c(=O)c2cnc(Nc3ccc(N4CCN(C)CC4)cc3)nc2n1-c1cccc(C(C)(C)O)n1 + Cc1cccc(N(C)C(=O)C2C(O)CCN2c2nc(C)cc(C(F)(F)F)c2C#N)c1
IC50 (second compound 0.0316 µM): > 1000 nM | IC50 (second compound 0.1 µM): > 1000 nM | IC50 (second compound 0.316 µM): > 1000 nM | IC50 (second compound 1 µM): > 1000 nM | IC50 (second compound 3.16 µM): > 1000 nM | IC50 (second compound 10 µM): > 1000 nM | viability, T/C [1]: 103% | viability, T/C [2]: 114% | viability, T/C [3]: 103% | viability, T/C [4]: 115% | viability, T/C (second compound 0.0316 µM, first compound 0.316 µM): 101% | viability, T/C (second compound 0.0316 µM, first compound 1 µM): 93% | viability, T/C [5]: 108% | viability, T/C [6]: 110% | viability, T/C [7]: 107% | viability, T/C [8]: 102% | viability, T/C (second compound 0.1 µM, first compound 0.316 µM): 108% | viability, T/C (second compound 0.1 µM, first compound 1 µM): 90.1% | viability, T/C [9]: 115% | viability, T/C [10]: 103% | viability, T/C [11]: 98.1% | viability, T/C [12]: 119% | viability, T/C (second compound 0.316 µM, first compound 0.316 µM): 108% | viability, T/C (second compound 0.316 µM, first compound 1 µM): 102% | viability, T/C [13]: 99.1% | viability, T/C [14]: 101% | viability, T/C [15]: 96% | viability, T/C [16]: 97.6% | viability, T/C (second compound 1 µM, first compound 0.316 µM): 110% | viability, T/C (second compound 1 µM, first compound 1 µM): 94.2% | viability, T/C [17]: 100% | viability, T/C [18]: 101% | viability, T/C [19]: 98.4% | viability, T/C [20]: 101% | viability, T/C (second compound 3.16 µM, first compound 0.316 µM): 103% | viability, T/C (second compound 3.16 µM, first compound 1 µM): 98.3% | viability, T/C [21]: 98.8% | viability, T/C [22]: 110% | viability, T/C [23]: 99.5% | viability, T/C [24]: 106% | viability, T/C (second compound 10 µM, first compound 0.316 µM): 105% | viability, T/C (second compound 10 µM, first compound 1 µM): 95.2%

Source: PubChem BioAssay AID1963828 (Molecular Pharmacology Branch, DTP, NCI, 2024)
